Literature values as cited in US20140056862A1, “NUTRITIONAL COMPOSITIONS HAVING ALPHA-HICA AND ALPHA-KETOGLUTARATE” (Nestec S.A., priority 2011, published 2014).

Test system: intestinal mammalian target of rapamycin (mTOR); intestinal villi and crypts
Settings: piglet stressed with LPS

O=C(O)CCC(=O)C(=O)O [AKG, α-ketoglutarate]
crypt depth: reduced | villous height: increased | phosphorylation of intestinal mammalian target of rapamycin (mTOR) (leading to increased protein synthesis and anti-inflammatory responses): increased
